Experimental data: patent publication US8460906B2, “Immobilized product tolerant microorganisms” (Cobalt Technologies, Inc., priority 2008, dated 2013)
Like-named read-outs stand apart in the source and are kept apart here.

Columns and labels:
Co-5673 [1] = settings: liquid P2+4% Xylose, 24 and 96 hr time points
Method: (§1) The next day, the OD600 of the seed train tubes was measured. […] Control tubes without inoculum were also prepared. Tubes were incubated in an anaerobic hood.
(§2) After 1 day and 3-4 days, the OD600 of liquid cultures was measured. Plates were examined for growth. […] OD600 at start (0 hr) was based on a 1:20 inoculation of the starter cultures.

Co-7449 = settings: liquid P2+4% Xylose, 24 and 96 hr time points
Method: as §1, §2

Co-0124 [2] = settings: liquid P2+4% Xylose, 24 and 96 hr time points
Method: as §1, §2

[3] = test system: environmental sample (isolate)
Method: An environmental sample (isolate) is obtained. The isolate is plated on a set of identical plates containing a nutrient agar.

[4] = test system: Clostridium saccharobutylicum strain Co-7449; settings: for highest butanol concentration of plates showing growth: solid media P2+4% Xylose
Method: (§3) In some embodiments, solvent tolerant microorganisms are mutagenized and selected for increased solvent tolerance on solid support. In some embodiments, solvent tolerant mutants can be used for either solvent or organic acid production. […] In some embodiments of the present invention, solvent tolerance is a relative value that is measured by comparing the growth ability of a mutant microorganism on a semi-solid or solid support to the growth ability of the non-mutant parent microorganism on the same semi-solid or solid support. Typically, the semi-solid or solid support comprises a growth media and a specified concentration of a solvent that is usually measured on a volume to volume (v/v) basis. Generally, multiple containers, usually petri dishes, are filled with semi-solid or solid support representing a range of solvent concentration. […] The highest concentration at which colonies still form represents the solvent tolerance of the microorganism. An alternative solvent tolerance test method is to overlay the non-solvent support with a solution containing a specified concentration of a solvent.
(§4) On the first day, a seed train of a strain to be investigated was started in 5 ml cultures of P2+4% Xylose in the anaerobic hood. A 1-L volume of sterile P2 medium containing 4% Xylose and agar was prepared and place on hot plate. […] The solution was mixed well and plates were poured in a sterile environment. After the plates were solidified, they were transferred to the anaerobic hood and parafilmed immediately prior to storage overnight.
as §1, §2

Co-5673 [5] = settings: solid media P2+4% Xylose
Method: as §4, §1, §2

Co-0124 [6] = settings: solid media P2+4% Xylose
Method: as §4, §1, §2

[7] = test system: mutants of C. saccharobutylicum strain Co-7449; settings: suspension culture, colonies from 5% butanol RCM plates
[8] = test system: mutants of C. saccharobutylicum strain Co-7449
Method: as §3
Clostridium saccharobutylicum strain Co-7449 was grown in yeast extract medium (YEM) to an approximate OD600 of 3 and was treated with a final concentration of 50 μg/ml N-methyl-N′-nitro-N-nitrosoguanidine (MNNG) for 15 minutes. Cells were twice washed with glucose-free YEM and plated on Reinforced Clostridium Medium (RCM) at 10^−3 and 10^−4 dilution to recover 3000-4000 colonies.

butanol
highest butanol concentration at which OD600 increased (Co-5673 [1]): 1.4 % (v/v)
highest butanol concentration at which OD600 increased (Co-7449): 1.4 % (v/v)
highest butanol concentration at which OD600 increased (Co-0124 [2]): 1.6 % (v/v)
butanol concentration the adapted strain grows in ([3]; after 20 passages on solid support with increasing butanol): 2.5%
highest butanol concentration of plates with colonies ([3]; unadapted isolate, no growth at 1.8% or 2.0%): 1.6%
butanol tolerance result on solid media ([4]; 24 hr, separate experiment): 2.1%
highest butanol concentration of plates showing growth ([4]; 24 hour): 0%
highest butanol concentration of plates showing growth ([4]; 96 hour): 2.2%
highest butanol concentration of plates showing growth (Co-5673 [5]; 24 hour): 2.2%
highest butanol concentration of plates showing growth (Co-5673 [5]; 96 hour): 2.2%
highest butanol concentration of plates showing growth (Co-0124 [6]; 24 hour): 2.2%
highest butanol concentration of plates showing growth (Co-0124 [6]; 96 hour): 2.3%
growth in YEM with 1.2% butanol added to the broth [7]: did not grow
tolerance for butanol compared to the parent Co-7449 strain ([8]; mutants grown on a solid support): at least a two-fold higher tolerance
growth on 5% butanol plates after culture in YEM without butanol ([8]; samples removed from liquid YEM, plated on 5% butanol plates): failed to grow
relative solvent tolerance of the mutants versus non-mutant parent strain ([8]; {}): at least 225%
